{"source": "patent US20170112787A1", "about": "“METHODS OF TREATMENT OF INFLAMMATION OF THE GUT” (THE UNIVERSITY OF CONNECTICUT, priority 2015, published 2017)", "key": {"siLP CX3CR1hi Mφ": {"test_system": "siLP CX3CR1hi Mφ", "experiment": "Oral gavage; frequency of siLP CX3CR1hi Mφ and CX3CR1lo cells by flow cytometry", "assay_type": "in vivo, mouse", "description": "Mice: C57BL/6, NOD/Lt, VR1^−/− (also known as TRPV1^−/−), IL27RA^−/− (also known as WSX-1^−/−) and CX3CR1^gfp/gfp, were obtained from the Jackson Laboratory (Bar Harbor, Me.). IL10-GFP reporter (Vert-X) mice were a kind gift from Dr. Roger S Thrall. All animals except NOD/Lt were on a C57BL/6 background. CX3CR1^gfp/gfp were crossed with C57BL/6 mice to obtain CX3CR1^gfp/+ mice. CX3CR1^gfp/gfp mice were backcrossed with VR1^−/− to obtain CX3CR1^gfp/+ VR1^−/− mice. IL27RA^−/− mice were backcrossed with C57BL/6 mice to obtain IL27RA^+/− mice. All animals were housed in the Center for Comparative Medicine at UConn Health. All experiments were conducted under the guidelines approved by the UConn Health Animal Care Committee.\n(§1) Cell isolation: The siLP cells were isolated as per protocols known in the art. In brief, small intestines were removed from the mice, luminal contents were flushed with cold HBSS (Invitrogen, Carlsbad, Calif., USA) with 5% FBS, opened longitudinally after removing Peyer's patches and cut in to small pieces. The epithelial cells were removed by incubation with HBSS containing 1.3 mM EDTA (Invitrogen, Carlsbad, Calif., USA), 1mM HEPES (Invitrogen, Carlsbad, Calif., USA) and 0.77 mM DTT (Sigma, St. Louis, Mo., USA) at 37° C. shaking at 350 rpm. The intestinal pieces were then washed with PBS (Invitrogen, Carlsbad, Calif., USA) and digested in 100 units/ml collagenase IV (Sigma, St. Louis, Mo., USA) at 37° C. shaking at 550 rpm. Leukocytes were enriched using percoll (GE Healthcare, Piscataway, N.J., USA) gradient. The PLN, MLN and splenic cells were isolated by gently crushing the organs through 70 μm cell strainer (BD Falcon, Franklin, N.J., USA). Splenocytes were incubated with ACK lysing buffer (Invitrogen, N.Y., USA) to eliminate red blood cells for 3 mins at 37° C. and washed twice with PBS.\n(§2) Flow cytometry: Fluorescently labeled antibodies used for surface staining included: CD11b (M1/70), CD11 c (N418), CX3CR1 (polyclonal), CD103 (2E7), CD64 (X54-5/7.1), MHCII (M5/114.15.2), B220 (RA3-6B2), CD3 (145-2C11), CD4 (RM4-5), CD25 (PC61) and CD62L (ME2-14) and those used for intracellular staining include: VR1 (polyclonal) IL10 (JESS-16E3), TNFα (MP6-XT22), IFNγ (XMG1.2), and IL17A (TC11-18H10.1). For detection of CB2, primary antibody against CB2 (polyclonal) was used followed by fluorescently labeled secondary antibody. All were purchased from Biolegend San Diego, Calif., USA except for TNFα (Becton Dickinson, San Jose, Calif., USA), CX3CR1 (R&D Minneapolis, Minn., USA), VR1 (Thermo Scientific, Rockford, Ill. USA), IL10 (eBioscience, San Diego Calif., USA) and CB2 (Thermo Scientific, Rockford, Ill. USA). Cells were acquired with a LSRII flow cytometer (Becton Dickinson, San Jose, Calif., USA) or sorted with a FACSAria™ machine (Becton Dickinson, San Jose, Calif., USA). Flow cytometry analysis was done with the FlowJo Version 9.7.6 (Tree Star, Ashland, Oreg,).\n(§3) Oral administration of CP, AEA and PF3845: Mice were anesthetized with intraperitoneal injection of ketamine (2 mg/kg) and xylazine (0.1 mg/kg). Vehicle control (tween 80 (5%), […] in PBS) or CP (10 μg) (ENZO Life Sciences, Farmingdale, N.Y., USA) or AEA (250 μg, 400 μg or 500 μg) (Cayman Chemical Co., Ann Arbor, Mich., USA) or PF3845 (5 mg/kg) (Cayman Chemical Co., Ann Arbor, Mich., USA) were gavaged in 100 μl volume using an 18-gauge feeding needle (Popper & Sons, New Hyde Park, N.Y., USA)."}, "[1]": {"test_system": "siLP CX3CR1hi Mφ and CD103+ DCs", "experiment": "Oral gavage; IL10, TNF-α and CX3CR1 expression in siLP CX3CR1hi Mφ and CD103+ DCs by flow cytometry", "assay_type": "in vivo, mouse", "procedure": "as §1, §2\nIntracellular cytokine staining: Cells were incubated with PMA (50 ng/ml) (Sigma Co., St. Luis, Mo., USA) plus ionomycin (1 μg/ml) (Sigma Co., St. Luis, Mo., USA) in the presence of golgi plug (BD Biosciences, San Jose, USA) for 5 hours at 37° C. followed by surface staining with fluorochrome conjugated antibodies and then intracellular staining of IL10, TNFα, IFNγ, and IL17A was performed by fixation and permeabilization according to manufacturer's protocol BD Cytofix/Cytoperm™ kit. […]"}, "[2]": {"test_system": "Type 1 Diabetes in NOD mice", "experiment": "Adoptive transfer of CD4+ T cells from treated NOD donors; diabetes development by urine glucose", "assay_type": "in vivo, mouse", "conditions": "CD4+ T cells from PLN and spleen of treated female NOD donors, vs vehicle elicited cells", "procedure": "Adoptive transfer: Female NOD mice were orally gavaged with CP 10 μg or vehicle at 9 and 10 weeks of age as described earlier. 2 weeks later CD4^+ T cells were sorted from the PLN and spleen of the treated mice. All recipient female NOD mice were sub-lethally irradiated. Four hours after irradiation the recipient mice received […] diabetogenic splenocytes. 7×10^6 sorted CD4^+ T cells were then transferred to naïve NOD female mice by retro-orbital injection at 11 weeks of age. Development of diabetes was monitored by measuring urine glucose using Diastix® reagent strips (Bayer, Elkhart, Ind., USA). Mice were considered diabetic after two consecutive readings of >1000 mg/dl of urine glucose."}, "[3]": {"test_system": "CD4+IL10+IFN-γ+ Tr1 cells", "experiment": "Oral gavage; frequency of CD4+IL10+IFN-γ+ Tr1 cells and IL17A+ CD4+ T cells in siLP and PLN", "assay_type": "in vivo, mouse", "procedure": "as §1, §2\n(§4) Intracellular cytokine staining: Cells were incubated with PMA (50 ng/ml) (Sigma Co., St. Luis, Mo., USA) plus ionomycin (1 μg/ml) (Sigma Co., St. Luis, Mo., USA) in the presence of golgi plug (BD Biosciences, San Jose, USA) for 5 hours at 37° C. followed by surface staining with fluorochrome conjugated antibodies and then intracellular staining of IL10, TNFα, IFNγ, and IL17A was performed by fixation and permeabilization according to manufacturer's protocol BD Cytofix/Cytoperm™ kit.\nas §3\nWe now tested if CP can elicit such regulatory T cells in vivo. NOD mice were orally gavaged twice at 9th and 10th week of age with 10 μg CP or vehicle as a control; two weeks post CP treatment, siLP and the PLN were harvested and the frequency of CD4+IL10+IFN-γ+ Tr1 cells was measured."}, "IL27-p28": {"test_system": "IL27-p28", "experiment": "qPCR of IL27-p28 in sorted siLP MNPs after oral gavage", "assay_type": "in vivo, mouse", "conditions": "two days after treatment, with respect to vehicle", "procedure": "as §3\nqPCR: Total RNA was isolated from sorted siLP MNP using the RNeasy® Micro kit Oaten, Chatsworth, Calif., USA). cDNA was made from total RNA using iSCRIPT™ cDNA synthesis kit (Bio-Rad Laboratories, Hercules, Calif.). IL-27 gene expression was measured using IL-27 TactMan® Gene Expression Assay (Life technologies, Grand Island, N.Y., USA) and CFX96™ Real-Time PCR detection system (Bio-Rad Laboratories, Hercules, Calif., USA). Gene expression was normalized to GAPDH."}, "[4]": {"test_system": "naïve splenic CD4+ T cells", "experiment": "In vitro co-culture of siLP MNPs sorted from treated mice with naïve splenic CD4+ T cells", "assay_type": "cell-based, mouse", "procedure": "as §4\nIn vitro co-culture assays: For in vitro co-culture assays, siLP MNPs were sorted as described previously from C57BL/6 or CX3CR1^gfp/+ mice. MNPs (10×10^4) were cocultured for 4 days with splenic naïve CD25^− CD62L^hi CD4^±T cells sorted from untreated C57BL/6 or IL27Ra^−/− mice at 1:1 ratios in the presence of soluble αCD3 mAb (145-2C11) (0.5 μg/ml) in U-bottomed 96 well plates. The cultured cells were maintained in RPMI 1640 medium supplemented with 5% fetal bovine serum, 1 mM sodium pyruvate, 1 mM non-essential amino acids, 2 mM L-gluatamine, 50 units/ml streptomycin, and 50 μM Beta-mercaptoethanol, all purchased from Gibco/Invitrogen (Carlsbad, Calif., USA). After 4 days, the cultured cells were washed with PBS and surface stained with CD4 and intracellular staining was performed for IL10 and IFN-γ.\nas §3"}, "[5]": {"test_system": "CX3CR1+ Mφ in PLN and MLN", "experiment": "Oral gavage; frequency of CX3CR1+ Mφ in PLN and MLN by flow cytometry", "assay_type": "in vivo, mouse", "procedure": "as §1\nas §2, with “Flow cytometry analysis was done with the FlowJo Version 9.7.6 (Tree Star, Ashland, Oreg,).” left out"}, "[6]": {"conditions": "CX3CR1gfp/+ mice, oral gavage, 24 hours after feeding, vs vehicle"}, "[7]": {"conditions": "NOD mice, 10 μg at 9th and 10th week, two weeks post treatment"}}, "data": [{"compound": "O=C(Nc1cccnc1)N1CCC(Cc2cccc(Oc3ccc(C(F)(F)F)cn3)c2)CC1", "note": "[PF3845]", "values": [{"measurement": "frequency of CX3CR1hi Mφ in siLP", "setting": "siLP CX3CR1hi Mφ; [6]", "result": "increase in the frequency"}]}, {"compound": "COc1cc(CNC(=O)CCCC/C=C/C(C)C)ccc1O", "note": "[CP, Capsaicin]", "values": [{"measurement": "production of TNF-α in CX3CR1hi Mφ", "setting": "[1]; 24 hours after treatment, vs controls", "result": "decreased"}, {"measurement": "expression of CX3CR1 on CX3CR1hi Mφ", "setting": "[1]; CX3CR1gfp/+ mice, vs vehicle", "result": "significantly increased expression of CX3CR1"}, {"measurement": "IL10 production in CD103+ DCs", "setting": "[1]; IL10-GFP reporter mice, oral gavage 10 μg, 24 hrs", "result": "modest but statistically significant increase in IL10 production"}, {"measurement": "production of IL10 in CX3CR1hi Mφ", "setting": "[1]; IL10 GFP-reporter mice, 24 hours after treatment, vs controls", "result": "significant increase in the production of IL10"}, {"measurement": "protection from T1D by transferred CD4+ T cells", "setting": "[2]", "result": "significantly higher protection from T1D"}, {"measurement": "frequency and number of CX3CR1lo cells in siLP", "setting": "siLP CX3CR1hi Mφ; CX3CR1gfp/+ mice, oral gavage 10 μg, 24 hours, vs vehicle", "result": "did not affect the frequency and number"}, {"measurement": "frequency of CX3CR1hi Mφ in siLP", "setting": "siLP CX3CR1hi Mφ; [6]", "result": "significantly increased the frequency"}, {"measurement": "frequency of CX3CR1hi Mφ in siLP", "setting": "siLP CX3CR1hi Mφ; CX3CR1gfp/gfp mice (lack functional CX3CR1), oral gavage 10 μg, 24 h", "result": "no changes in the frequency"}, {"measurement": "frequency of CX3CR1hi Mφ in siLP", "setting": "siLP CX3CR1hi Mφ; NOD mice, oral administration", "result": "increases the frequency"}, {"measurement": "elicitation of Tr1 cells in PLN", "setting": "[3]; CX3CR1gfp/gfp mice (no functional CX3CR1)", "result": "does not elicit Tr1 cells"}, {"measurement": "Tr1 cell elicitation by IL27RA genotype", "setting": "[3]; IL27RA −/−, +/− and +/+ mice", "result": "gene dose-dependence of Tr1 cell elicitation"}, {"measurement": "dependence of elicited Tr1 cells on IL27 signaling", "setting": "[3]; IL27RA+/+ vs IL27RA−/− mice, PLN", "result": "require the presence of functional IL27-IL27R signaling"}, {"measurement": "frequency of Tr1 cells in PLN", "setting": "[3]; [7]", "result": "expansion of Tr1 cells"}, {"measurement": "frequency of Tr1 cells in siLP", "setting": "[3]; [7]", "result": "expansion of Tr1 cells"}, {"measurement": "frequency of IL17A+ CD4+ T cells in the PLN", "setting": "[3]; NOD mice, oral administration", "result": "significant decrease in the frequency"}, {"measurement": "level of IL27-p28 in the MNPs", "setting": "IL27-p28", "result": "five fold increase"}, {"measurement": "expression of IL10 in CD4+ T cells", "setting": "[4]; MNPs sorted 24 hours after treatment, co-culture 1:1, four days", "result": "significant increase in the expression of IL10"}, {"measurement": "induction of CD4+ T cells expressing both IL10 and IFN-γ (Tr1)", "setting": "[4]; MNPs sorted 24 hours after treatment, co-culture 1:1, four days, IL27RA+/+ T cells", "result": "significant increase in the induction"}, {"measurement": "increase in frequency of CD4+ IL10+ IFN-γ+ T cells", "setting": "[4]; T cells derived from IL27RA−/− mice", "result": "completely abrogated"}, {"measurement": "frequency of CX3CR1+ Mφ in the MLN", "setting": "[5]; 3 days after feeding 10 μg", "result": "but not in MLN"}, {"measurement": "frequency of CX3CR1+ Mφ in the PLN", "setting": "[5]; 3 days after feeding 10 μg", "result": "significant VR1-dependent increase in the frequency"}, {"measurement": "frequency of CX3CR1+ Mφ in the PLN", "setting": "[5]; NOD mice, 3 days post oral gavage 10 μg", "result": "significant increase in the frequency"}]}]}
